# Reference: PubChem BioAssay (NCI)
#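 Step 1: Grow cells in 96-well plates. Step 2: Expose to compound for 48 hours at 5 concentrations. Step 3: Interpolate endpoints linearly; if unreached, use highest concentration. GI50 marks 50% less growth. TGI marks complete inhibition of growth.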
# What was measured:
# Experiment in all cases: DTP human tumour cell line panel, 48 h
# [1] = test system: HT29 colon
# [2] = test system: SF-295 CNS
# [3] = test system: CCRF-CEM leukemia
# [4] = test system: RXF 393 renal
# [5] = test system: MALME-3M melanoma
# [6] = test system: SNB-19 CNS
# [7] = test system: M14 melanoma
# [8] = test system: HOP-92 NSCLC
# [9] = test system: SW-620 colon
# [10] = test system: OVCAR-3 ovarian
Structure (SMILES),GI50 [1] [nM],TGI [1] [µM],GI50 [2] [µM],TGI [2] [µM],GI50 [3] [nM],TGI [3] [µM],GI50 [4] [nM],TGI [4] [nM],GI50 [5] [µM],TGI [5] [µM],GI50 [6] [µM],TGI [6] [µM],GI50 [7] [nM],TGI [7] [µM],GI50 [8] [nM],TGI [8] [µM],GI50 [9] [nM],TGI [9] [µM],GI50 [10] [µM],TGI [10] [µM]
COc1ccccc1-c1cc(/C=C2\C(=O)Nc3ncc(Br)cc32)cc(Br)c1O,18900,> 25,10.5,> 25,9760,> 25,6770,> 25000,16.4,> 25,12.5,> 25,12900,> 25,1210,> 25,19400,> 25,9.51,> 25
CCCCCCCCCCCCNC(=O)[C@H]1CSC(c2cc3ccccc3s2)N1 (stereo not given in full),1740,5.87,3.52,8.33,725,1.68,942,2210,5.75,10.9,5.47,11.2,591,1.11,5410,10.5,2300,7.93,3.79,9.5
CCN(CC)CCCC(C)Nc1cc(-c2ccc(C(F)(F)F)cc2)c(C#N)c2nc3ccccc3n12 (stereo not given),2380,5.58,1.89,3.57,846,> 100,1400,2960,1.83,3.54,2.96,11.1,1810,3.37,1660,3.43,1920,3.99,1.84,3.68
O=C1Nc2cc(Cl)ccc2N=CC1NC(=O)C(c1ccccc1)c1ccccc1Cl (stereo not given),,> 100,,> 100,,> 100,,> 100000,,> 100,,> 100,,> 100,,> 100,,> 100,,> 100
